According to patent US12357626B2, “Anthranilic acid-based compound, and Pin1 inhibitor, therapeutic agent for inflammatory diseases and therapeutic agent for cancer that use the same” (Amenis Bioscience, Inc., priority 2017, dated 2025):

Columns and labels:
[1] = biological target: T1, Pin1 (Homo sapiens, UniProt Q13526); assay: Cell-based evaluation of Pin1 inhibition activity with AMPK phosphorylation level as index (293T cells, Western blot); set-up: key: +++: a higher level of AMPK phosphorylation is promoted, as compared with C1; ++: a similar level of AMPK phosphorylation is promoted, as compared with C1; +: a lower level of AMPK phosphorylation is promoted, as compared with C1; −: no or almost no promotion is found in AMPK phosphorylation; settings: compound at 100 μM, 30 minutes, then 10 mM 2-DG for one hour, pAMPK level compared with C1
T1 construct: endogenous in cells; host or cells: 293T cells
Procedure: To evaluate the inhibitory activity of each compound synthesized in Example 1 against the function of Pin1, a cell-based assay was performed according to the method previously developed by the inventors (Yusuke Nakatsu et al., Journal of Biological Chemistry, 2015, Vol. 290, No. 40, pp. 24255-24266), in which the phosphorylation level of AMPK (AMP-activated protein kinase), a protein whose phosphorylation is inhibited by Pin1, was examined as an index.
Briefly, 293T cells were plated on a collagen-coated 24-well plate. Forty-eight hours later, each compound synthesized in the preceding example (at 100 μM) was added to the plate, and the plate was left to stand in an incubator for 30 minutes. Subsequently, 10 mM 2-DG was added to the plate, and one hour later, each sample was collected with a buffer containing mercaptoethanol and SDS.
SDS-PAGE and blotting were performed, and blocking was then performed with 3% BSA for 1 hour, according to conventional protocols. Subsequently, a pAMPK antibody (Cell Signaling; diluted 1:2000 in Can Get Signal Solution 1, Toyobo) as a primary antibody, and an HRP-linked anti rabbit IgG (GE Healthcare; diluted 1:4000 in Can Get Signal Solution 2, Toyobo) as a secondary antibody were allowed to react at ambient temperature for 1 hour prior to detection.
The inhibitory activity against the function of Pin1 was evaluated by comparing the inhibition levels between each compound and a known Pin1 inhibitor, C1, as indicated below:
(+++): a higher level of AMPK phosphorylation is promoted, as compared with C1;
(++): a similar level of AMPK phosphorylation is promoted, as compared with C1;
(+): a lower level of AMPK phosphorylation is promoted, as compared with C1;
(−): no or almost no promotion is found in AMPK phosphorylation.

[2] = tested on: DU145 cells; assay: Cancer treatment study in nude mice implanted with DU145 tumors; type: in vivo, nude mice (BALB/c-slc-nu/nu mice); settings: intraperitoneal 2.5 mg/kg/day 5 times a week for 9 weeks, versus control mice
Procedure: An animal experiment was performed using mice transplanted with cancer cells to test the therapeutic effects of the compounds according to the present invention on cancer.
A first tumor (DU145 cells) with Matrigel plug was implanted in the middle of the upper back of nude mice (BALB/c-slc-nu/nu mice).
Five weeks after the first implantation, a second tumor (DU145 cells) was implanted in the middle of the left and right sides of the back of the nude mice.
Intraperitoneal administration of a compound according to the present invention, H-77, at a dose of 2.5 mg/kg/day and a frequency of 5 times a week was started 6 weeks after the first implantation, at which the first tumor became measurable (at this timing, the second tumor was so small in size and not measurable), and was continued for 9 weeks. No compound was administered to a group of mice to prepare control mice.
The volume of the second tumor was so small and not measurable at the beginning of administration of the compound. Therefore, the result from the second tumor is expressed in volume (mm^3), but not in ratio.

[3] = tested on: NASH mice (methionine-choline-deficient diet, MCDD); assay: NASH treatment study in MCDD-fed NASH mice; type: in vivo, mice (C57BL/6J); settings: NASH mice given MCDD for 8 weeks; intraperitoneal 2.5 mg/kg/day three times a week; FIG. 3
Procedure: Next, an animal experiment was performed on NASH mice that were produced by feeding a methionine-choline-deficient diet (MCDD).

[4] = tested on: non-alcoholic steatohepatitis (NASH) model mice (HFDT); settings: intraperitoneal 2.5 mg/kg/day three times a week
Procedure: Animal experiments were performed using non-alcoholic steatohepatitis (NASH) model mice to test the compounds according to the present invention for the therapeutic effect on NASH.
NASH model mice (hereinafter referred to as “NASH mice”) were produced by feeding a high-fat diet containing trans fatty acids (HFDT) to individual male laboratory mice (C57BL/6J) for 8 weeks. The mice were divided into groups, and animal experiments were performed on a group of mice to which a compound according to the present invention (H-77) was administered intraperitoneally at a dose of 2.5 mg/kg/day three times a week, and a group of mice to which Juglone, a known Pin1 inhibitor, was administered intraperitoneally at a dose of 2.5 mg/kg/day three times a week, and a group of mice to which nothing was administered, during the 8-week HFDT feeding period. In addition, a normal diet was given to individual male laboratory mice (C57BL/6J) for 8 weeks to prepare control mice.

T1 sequence (Q13526 whole entry): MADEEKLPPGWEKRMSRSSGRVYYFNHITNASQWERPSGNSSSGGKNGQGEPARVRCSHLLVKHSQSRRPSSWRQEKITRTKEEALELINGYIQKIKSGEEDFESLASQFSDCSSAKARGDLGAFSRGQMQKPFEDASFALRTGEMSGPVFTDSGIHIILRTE

SMILES | Pin1 inhibition activity [1] | further results
CC(=O)Nc1ccc(OCc2ccccc2)cc1C(=O)O [Compound H-296, reference compound] | − | 
CC(=O)Nc1ccc(OCc2ccc3ccccc3c2)cc1C(=O)O [Compound H-297] | +++ | 
COC(=O)c1cc(OCc2ccc3ccccc3c2)ccc1N [Compound H-300] | +++ | 
O=C(O)c1cc(OCc2ccccc2)ccc1NS(=O)(=O)c1ccc2ccccc2c1 [Compound H-338] | + | 
O=C(Nc1ccc(OCc2ccccc2)cc1C(=O)O)c1cccc(Oc2ccccc2)c1 [Compound H-363] | + | 
O=C(O)c1cc(OCc2ccc3ccccc3c2)ccc1NS(=O)(=O)c1ccc2ccccc2c1 [Compound H-376] | + | 
Nc1ccc(OCc2ccc3ccccc3c2)cc1C(=O)O [Compound H-443] | + | 
O=C1C=CC(=O)c2c(O)cccc21 [Juglone, reference compound] |  | death of the mice during the study ([4]; NASH mice given HFDT for 8 weeks): all dead within 8 weeks

Continued, in another order:

Pin1 inhibition activity [1] | SMILES | further results
+ | COC(=O)c1cc(OCc2ccccc2)ccc1NC(=O)c1ccc2ccccc2c1 [Compound H-68] | 
+++ | O=C(Nc1ccc(OCc2ccccc2)cc1C(=O)O)c1ccc2ccccc2c1 [Compound H-77] | tumor volume ratio of the first tumor ([2]; first DU145 tumor, FIG. 4 (A)): tumor size growth was suppressed; volume of the second tumor ([2]; second DU145 tumor, FIG. 4 (B)): tumor size growth was suppressed; hepatic fibrosis (liver tissue sections with Azan staining) [3]: hepatic fibrosis was significantly inhibited; liver weight ([4]; NASH mice given HFDT for 8 weeks, FIG. 1 (A)): increase in liver weight was reduced; blood AST (GOT) concentration ([4]; NASH mice given HFDT for 8 weeks, FIG. 1 (B)): AST value was decreased; fat accumulation in liver tissue (microscopic observation of sections) ([4]; NASH mice given HFDT, FIG. 2): reduced fat accumulation
++ | COC(=O)c1cc(OCc2ccc3ccccc3c2)ccc1NC(C)=O [Compound H-182] | 
+ | O=C(Nc1ccc(OCc2ccccc2)cc1C(=O)O)c1ccc2ccccc2n1 [Compound H-339] | 
+ | O=C(COc1ccc2ccccc2c1)Nc1ccc(OCc2ccccc2)cc1C(=O)O [Compound H-362] | 
+ | O=C(O)c1cc(OCc2ccccc2)ccc1NC(=O)c1cccc2ccccc12 [Compound H-370] | 
+ | O=C(Nc1ccc(OCc2ccc3ccccc3c2)cc1C(=O)O)c1ccc2ccccc2c1 [Compound H-371] | 
